Results from PubChem BioAssay AID248 (DTP/NCI, 2004).
“And” between values parts separate entries of the source, which are not always exact repeats. Identical values can stand only once. Inconclusive results and toxic doses are left out. Rule as the data show it: active = T/C of 150% or more; inactive = T/C below 125%.

Test system: L1210 leukemia ip in BDF1 mice, survival T/C
Assay: NCI In Vivo Anticancer Drug Screen. Data for tumor model L1210 Leukemia (intraperitoneal) in B6D2F1 (BDF1) mice
Details: endpoint: mean survival time, higher = longer survival
Method in brief: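 Transplantable tumor model; survival measured in treated vs vehicle control mice. Value = treated/control.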

[1] = dose: 100.0 mg/kg/injection, schedule: Q01DX001 (ip), vehicle: saline
[2] = dose: 200.0 mg/kg/injection, schedule: Q01DX001 (ip), vehicle: saline
[3] = dose: 400.0 mg/kg/injection, schedule: Q01DX001 (ip), vehicle: saline
[4] = dose: 100.0 mg/kg/injection, schedule: Q04DX002 (ip), vehicle: Klucel (hydroxypropylcellulose) (HPC)
[5] = dose: 200.0 mg/kg/injection, schedule: Q04DX002 (ip), vehicle: Klucel (hydroxypropylcellulose) (HPC)
[6] = dose: 400.0 mg/kg/injection, schedule: Q04DX002 (ip), vehicle: Klucel (hydroxypropylcellulose) (HPC)
[7] = dose: 100.0 mg/kg/injection, schedule: Q01DX009 (ip), vehicle: Klucel (hydroxypropylcellulose) (HPC)
[8] = dose: 100.0 mg/kg/injection, schedule: Q04DX003 (ip), vehicle: Klucel (hydroxypropylcellulose) (HPC)
[9] = dose: 200.0 mg/kg/injection, schedule: Q01DX009 (ip), vehicle: Klucel (hydroxypropylcellulose) (HPC)
[10] = dose: 200.0 mg/kg/injection, schedule: Q04DX003 (ip), vehicle: Klucel (hydroxypropylcellulose) (HPC)
[11] = dose: 400.0 mg/kg/injection, schedule: Q04DX003 (ip), vehicle: Klucel (hydroxypropylcellulose) (HPC)

Measured: T/C

O=C1C2=C(c3ccccc31)C1c3ccccc3C(=O)C1(c1ccccc1)c1ccccc12 (stereo unspecified)
inactive: [1] 105 % of control | [2] 97 % of control | [3] 92 % of control

O=C(NCCc1ccccc1)c1ccc2ccccc2n1
inactive: dose: 3.12 mg/kg/injection, schedule: Q01DX009 (ip), vehicle: DMSO 93 % of control | dose: 6.25 mg/kg/injection, schedule: Q01DX009 (ip), vehicle: DMSO 93 % of control | dose: 12.5 mg/kg/injection, schedule: Q01DX009 (ip), vehicle: DMSO 91 % of control | dose: 25.0 mg/kg/injection, schedule: Q01DX009 (ip), vehicle: DMSO 90 % of control | dose: 100.0 mg/kg/injection, schedule: Q04DX003 (ip), vehicle: DMSO 95 % of control | dose: 200.0 mg/kg/injection, schedule: Q04DX003 (ip), vehicle: DMSO 97 % of control | dose: 400.0 mg/kg/injection, schedule: Q04DX003 (ip), vehicle: DMSO 95 % of control

O=C1c2ccccc2C(=O)c2cc(Cl)ccc21
inactive: [4] 95 % of control | [5] 98 % of control | [6] 98 % of control

O=C(O)c1ccc(F)cc1O
inactive: [1] 97 % of control | [2] 109 % of control

Nc1ccc(-c2ccccc2)cc1Br
inactive: dose: 15.0 mg/kg/injection, schedule: Q01DX001 (ip), vehicle: carboxymethylcellulose (CMC) 101 % of control | dose: 30.0 mg/kg/injection, schedule: Q01DX001 (ip), vehicle: carboxymethylcellulose (CMC) 96 % of control

NC(=O)c1ccccc1C(N)=O
inactive: [7] 97 % of control | [8] 100 % of control | [9] 98 % of control | [10] 102 % of control | dose: 400.0 mg/kg/injection, schedule: Q01DX009 (ip), vehicle: Klucel (hydroxypropylcellulose) (HPC) 93 % of control | [11] 100 % of control

CC(=O)NC1=C(c2ccccc2)C(=O)c2ccccc21
inactive: dose: 45.0 mg/kg/injection, schedule: Q01DX001 (ip), vehicle: Klucel (hydroxypropylcellulose) (HPC) 107 % of control | dose: 65.0 mg/kg/injection, schedule: Q01DX001 (ip), vehicle: Klucel (hydroxypropylcellulose) (HPC) 96 % of control | dose: 100.0 mg/kg/injection, schedule: Q01DX001 (ip), vehicle: Klucel (hydroxypropylcellulose) (HPC) 100 % of control and 104 % of control | [8] 107 % of control | dose: 150.0 mg/kg/injection, schedule: Q01DX001 (ip), vehicle: Klucel (hydroxypropylcellulose) (HPC) 96 % of control | dose: 200.0 mg/kg/injection, schedule: Q01DX001 (ip), vehicle: Klucel (hydroxypropylcellulose) (HPC) 96 % of control and 117 % of control and 91 % of control | [10] 107 % of control | dose: 300.0 mg/kg/injection, schedule: Q01DX001 (ip), vehicle: Klucel (hydroxypropylcellulose) (HPC) 104 % of control | dose: 400.0 mg/kg/injection, schedule: Q01DX001 (ip), vehicle: Klucel (hydroxypropylcellulose) (HPC) 97 % of control and 102 % of control and 103 % of control | [11] 97 % of control

O=C(O)CCC(=O)CCC(=O)O
inactive: dose: 100.0 mg/kg/injection, schedule: Q01DX009 (ip), vehicle: other 95 % of control | dose: 200.0 mg/kg/injection, schedule: Q01DX009 (ip), vehicle: other 106 % of control | dose: 400.0 mg/kg/injection, schedule: Q01DX009 (ip), vehicle: other 106 % of control

Cn1c(NCC[N+](C)(C)C)nc2ncncc21
inactive: dose: 15.0 mg/kg/injection, schedule: Q01DX001 (ip), vehicle: saline 90 % of control | dose: 30.0 mg/kg/injection, schedule: Q01DX001 (ip), vehicle: saline 93 % of control | dose: 60.0 mg/kg/injection, schedule: Q01DX001 (ip), vehicle: saline 95 % of control

O=C(O)c1ccc([N+](=O)[O-])cc1Sc1ccsc1
inactive: [1] 98 % of control | [2] 98 % of control | [3] 98 % of control

CC(C)C(=O)OCC1OC(n2cnc3c(=S)nc[nH]c32)C(OC(=O)C(C)C)C1OC(=O)C(C)C (stereo unspecified)
inactive: dose: 2.5 mg/kg/injection, schedule: Q01DX Z (oral), vehicle: carboxymethylcellulose (CMC) 101 % of control | dose: 5.0 mg/kg/injection, schedule: Q01DX Z (oral), vehicle: carboxymethylcellulose (CMC) 95 % of control | dose: 10.0 mg/kg/injection, schedule: Q01DX Z (oral), vehicle: carboxymethylcellulose (CMC) 97 % of control | dose: 20.0 mg/kg/injection, schedule: Q01DX Z (oral), vehicle: carboxymethylcellulose (CMC) 100 % of control

O=C1c2ccccc2C(=O)N1c1cccc([N+](=O)[O-])c1
inactive: dose: 50.0 mg/kg/injection, schedule: Q01DX009 (ip), vehicle: Klucel (hydroxypropylcellulose) (HPC) 114 % of control | [7] 90 % of control | [9] 114 % of control

COc1ccc(-c2ccc(C(C)=O)cc2)cc1
inactive: [4] 90 % of control | [5] 100 % of control | [6] 100 % of control

CCOC(=O)N1C(=O)NC(=O)C1c1ccc(OC)cc1 (stereo unspecified)
inactive: dose: 50.0 mg/kg/injection, schedule: Q01DX001 (ip), vehicle: saline 91 % of control | [1] 97 % of control | [2] 100 % of control | [3] 102 % of control

Nc1nc(N)c(-c2ccc(Cl)c(Cl)c2)c(/C=C/C=C/c2cccnc2)n1
inactive: dose: 16.7 mg/kg/injection, schedule: Q01DX009 (ip), vehicle: saline with Tween-80 112 % of control | dose: 37.5 mg/kg/injection, schedule: Q01DX009 (ip), vehicle: saline with Tween-80 86 % of control

Clc1ccccc1/C=N/Nc1nnc(N/N=C/c2ccccc2Cl)c2ccccc12
inactive: dose: 50.0 mg/kg/injection, schedule: Q01DX001 (ip), vehicle: carboxymethylcellulose (CMC) 95 % of control | dose: 100.0 mg/kg/injection, schedule: Q01DX001 (ip), vehicle: carboxymethylcellulose (CMC) 89 % of control | dose: 200.0 mg/kg/injection, schedule: Q01DX001 (ip), vehicle: carboxymethylcellulose (CMC) 89 % of control | dose: 400.0 mg/kg/injection, schedule: Q01DX001 (ip), vehicle: carboxymethylcellulose (CMC) 89 % of control

CCCCCCCCCCCCOCCCN
inactive: dose: 12.5 mg/kg/injection, schedule: Q01DX009 (ip), vehicle: saline with Tween-80 98 % of control | dose: 12.5 mg/kg/injection, schedule: Q04DX003 (ip), vehicle: saline with Tween-80 92 % of control | dose: 25.0 mg/kg/injection, schedule: Q01DX009 (ip), vehicle: saline with Tween-80 90 % of control | dose: 25.0 mg/kg/injection, schedule: Q04DX003 (ip), vehicle: saline with Tween-80 90 % of control | dose: 50.0 mg/kg/injection, schedule: Q04DX003 (ip), vehicle: saline with Tween-80 92 % of control

CCOCC[P+](c1ccccc1)(c1ccccc1)c1ccccc1
inactive: dose: 5.0 mg/kg/injection, schedule: Q01DX001 (ip), vehicle: saline 92 % of control | dose: 10.0 mg/kg/injection, schedule: Q01DX001 (ip), vehicle: saline 92 % of control | dose: 10.0 mg/kg/injection, schedule: Q01DX015 (ip), vehicle: saline 90 % of control | dose: 20.0 mg/kg/injection, schedule: Q01DX001 (ip), vehicle: saline 106 % of control | dose: 40.0 mg/kg/injection, schedule: Q01DX001 (ip), vehicle: saline 105 % of control

CON(C)C(=O)N1c2ccccc2Sc2ccccc21
inactive: dose: 25.0 mg/kg/injection, schedule: Q04DX002 (ip), vehicle: saline with Tween-80 88 % of control | dose: 50.0 mg/kg/injection, schedule: Q04DX002 (ip), vehicle: saline with Tween-80 95 % of control | dose: 100.0 mg/kg/injection, schedule: Q04DX002 (ip), vehicle: saline with Tween-80 103 % of control | dose: 200.0 mg/kg/injection, schedule: Q04DX002 (ip), vehicle: saline with Tween-80 95 % of control
